Data reported in patent US7893055B2, “HIV integrase inhibitors” (priority 2006, dated 2011).
pEC50, pIC50: −log10 of the molar value.

How the values were obtained:
HIV-integrase = biological target: T1, HIV-integrase (Human immunodeficiency virus type 1 group M subtype B, UniProt P12497); assay: HIV-Integrase Inhibition Activity (SPA strand transfer assay); format: biochemical; conditions: recombinant integrase, SPA beads, P33 labeled target DNA; read-out: Activity (IC50 class, HIV-integrase inhibition)
T1 construct: Recombinant integrase (0.26 ng) was incubated with the beads
How it was run: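 Biotinylated substrate DNA (5 pmol) on streptavidin SPA beads was preloaded with 0.26 ng recombinant integrase for 90 min at 37 °C, then washed. Inhibitors and 0.1 fmol 33P-labelled target DNA were added; EDTA (10 mM final) stopped the reaction. Strand-transfer integration was read as bead-associated CPM; IC50 values are grouped into activity bands.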

[1] = test system: recombinant NL-Rluc virus; assay: Inhibition of HIV replication (NL-Rluc virus, luciferase); format: cell-based; conditions: NL-Rluc pseudotype virus; serum condition of tabulated values not stated (10% FBS, 15 mg/ml HSA/10% FBS or 40% human serum/5% FBS); read-out: Activity (EC50 class, inhibition of HIV replication)

| Molecule | pIC50 (HIV-integrase) | melting point [°C] | pEC50 [1] |
| --- | --- | --- | --- |
| Cc1ncc(CNC(=O)c2nc3n(c(=O)c2O)CCOC3(C)C)s1 [Example 85, 3-Hydroxy-9,9-dimethyl-N-((2-methylthiazol-5-yl)methyl)-4-oxo-4,6,7,9-tetrahydropyrimido[2,1-c][1,4]oxazine-2-carboxamide] | 7.00 to 8.70 | 245 | – |
| Pyrimido[2,1-c][1,4]oxazine-2- carboxamide, N-(2- benzofuranylmethyl)-4,6,7,9- tetrahydro-3-hydroxy-9,9- dimethyl-4-oxo- [Example 56] | 7.00 to 8.70 | – | 7.00 to 8.52 |
| Pyrimido[2,1-c][1,4]oxazine-2- carboxamide, N-[(2-bromo-3- thienyl)methy]-4,6,7,9-tetrahydro- 3-hydroxy-9,9-dimethyl-4-oxo- [Example 41] | 7.00 to 8.70 | – | 6.00 to 7.00 |
| Pyrimido[2,1-c][1,4]oxazine-2- carboxamide, N-[(1-ethyl-1H- pyrazol-3-yl)methyl]-4,6,7,9- tetrahydro-3-hydroxy-9,9- dimethyl-4-oxo- [Example 67] | 7.00 to 8.70 | – | 6.00 to 7.00 |
